Data: US20220281931A1, “CHEMICALLY INDUCIBLE POLYPEPTIDE POLYMERIZATION” (Dana-Farber Cancer Institute, Inc., priority 2019, published 2022)

How the values were obtained:
[1] = system: SuDHL4Cas9 cells; test: Whole proteome quantification using tandem mass tag mass spectrometry; format: cell-based, human; details: SuDHL4 cells, 1 μM compound, 4 hours
Procedure: 10×10^6 SuDHL4Cas9 cells were treated with DMSO, 1 μM BI-3802 or 1 μM BI-3812 for 1 h or 4 h in triplicates and cells were harvested by centrifugation. Samples were processed, measured and analyzed as previously described (Donovan, K. A. et al. Thalidomide promotes degradation of SALL4, a transcription factor implicated in Duane Radial Ray syndrome. Ehfe 7, doi:10.7554/eLife.38430 (2018)). Data are available in the PRIDE repository (PXD016185).

[2] = target: T1, eGFPBCL6 stability reporter (Homo sapiens, UniProt P41182); test: Degradation of BCL6 reporter constructs in HEK293T cells (flow cytometry); format: cell-based; details: HEK293T cells, 1 μM, 1 hour
T1 construct: the full length BCL6 (BCL6^FL) was fused in-frame with eGFP; expressed in transfected cells; host or cells: HEK293TCas9 cells, lentiviral transduction (Artichoke vector)
Procedure: Lentivirus was packaged in HEK293T cells using TransIT (Mirus) and subsequently used for spin infection.
HEK293TCas9 cells expressing indicated constructs in “Artichoke” or “Cilantro2” stability reporter vectors (PGK or SFFV Target-eGFP-IRES-mCherry, puromycin resistance) were plated in 96 well plates and treated for indicated times. BCL6-eGFP and mCherry expression were quantified by flow cytometry (CytoFLEX, Beckman or LSR Fortessa flow cytometer BD Biosciences). All degradation assays were done in at least triplicates. Geometric means of eGFP and mCherry fluorescent signals for live and mCherry positive cells were exported using flow cytometry analysis software (FlowJo, BD). Ratios of eGFP to mCherry were normalized to the average of DMSO-treated controls.

[3] = target: T2, BCL6-eGFP fusion construct (Homo sapiens, UniProt P41182); test: Live cell imaging of BCL6-eGFP foci in HEK293T cells; format: cell-based; details: HEK293T cells, full length BCL6 and eGFPBCL6^1-275, 1 μM
T2 construct: expressed in transfected cells; host or cells: HEK293TCas9 cells, lentiviral transduction (Cilantro2 vector)
Procedure: 1×10^3 HEK293T cells per cm^2 were seeded in a μ-Slide 8 Well chamber (ibidi) and cultured for 18-24 h under standard growth conditions. Cell culture medium was exchanged to CO2 independent media (Gibco) and imaged with the DeltaVision Ultra High-Resolution Microscope (GE Healthcare, 100×lens, oil refraction index=1.520). The following acquisition parameters were used: Image size […], binning 1×1, GFP exposure time 0.08 sec. and the Neutral Density (% T) filter 32%. To capture foci within all cell volume, around 26μm per cell was imaged every 0.4-0.5 μm. Images were deconvolved (10 cycles, conservative conditions) and projected using maximal intensity by softWoRx® 7.0.0. Images for movies were taken every 10 minutes and combined to a movie by QuickTime.

[4] = target: T3, BCL6^5-360 (Homo sapiens, UniProt P41182); test: Size-exclusion chromatography of purified recombinant BCL6; format: biochemical; details: purified BCL6^5-360, 2 μM compound
T3 construct: size-exclusion chromatogram of purified BCL6^5-360 in the presence of DMSO; made in house; host or cells: Trichoplusia ni High Five insect cells, baculovirus
Description: The human wild-type and mutant versions of BCL6 (residue 5-129 or 5-360) and SIAH1 variants (residue 90-282 (substrate binding domain, SBD) or full length), were cloned in pAC-derived vectors. Baculovirus for protein expression (Invitrogen) was generated by transfection into Spodoptera frugiperda (Sf9) cells at a density of 0.9×10^6 cells/mL grown in ESF 921 media (Expression Systems), followed by three rounds of infection in Sf9 cells to increase viral titer. Recombinant proteins were expressed and purified as N-terminal His6 C-terminal Spy (wild-type and mutant versions of BCL6^5-360), N-terminal Strep II-Avi (BCL6^5-129, BCL6^5-360, and SIAH1^SBD), and N-terminal Flag (SIAH1^FL) fusions in Trichoplusiani High Five insect cells using the baculovirus expression system (Invitrogen).

[5] = target: T4, Nano-LuciferaseSIAH1^C44S and HaloTagBCL6 (Homo sapiens, UniProt P41182); test: NanoBRET BCL6-SIAH1 interaction in HEK293T cells; format: cell-based; details: 1 μM, 2 hours
T4 construct: expressed in transfected cells; host or cells: HEK293T cells, transient transfection
Procedure: Bioluminescence resonance energy transfer (BRET) experiments were performed using a NanoBRET PPI starter kit (Promega N1821) according to the manufacturer's instructions and as previously described (Sperling, A. S. et al. Patterns of substrate affinity, competition, and degradation kinetics underlie biological activity of thalidomide analogs. Blood 134, 160-170, doi:10.1182/blood.2019000789 (2019)).

[6] = target: T5, BCL6^5-129 (Homo sapiens, UniProt P41182); test: BCL6-BCoR TR-FRET (compound binding assay); details: 0.1 μM FITCBCoR polypeptide, 0.1 μM BiotinBCL6^5-129
T5 construct: mixing 100 nM biotinylated BCL6^5-129, 100 nM N-terminal FITC-labeled BCoR peptide; made in house; host or cells: Trichoplusia ni High Five insect cells, baculovirus
Procedure: Competitive titration of BI-3802 or BI-3812 were carried out by mixing 100 nM biotinylated BCL6^5-129, 100 nM N-terminal FITC-labeled BCoR peptide (sequence: […]), and 2 nM terbium-coupled streptavidin in the same assay buffer. After dispensing the assay mixture (15 μL volume), increasing concentrations of compounds were dispensed in a 384-well microplate (Corning, 4514) using a D300e Digital Dispenser (HP) normalized to 1% DMSO. The 520/490 nm ratios were measured as described above and plotted to calculate the KD^APP values using dose-response analysis standard four parameter log-logistic curves using the dr4pl R package.

SMILES: CNC(=O)COc1cc2cc(Nc3nc(N4C[C@H](C)C[C@H](C)C4)ncc3Cl)ccc2n(C)c1=O [BI-3802, 2-((6-((5-chloro-2-((3S,5R)-3,5-dimethylpiperidin-1-yl)pyrimidin-4-yl)amino)-1-methyl-2-oxo-1,2-dihydroquinolin-3-yl)oxy)-N-methylacetamide]
- change in polypeptide abundance (whole proteome) [1]: BCL6 was the only polypeptide with significantly decreased abundance
- degradation of full-length BCL6 reporter (eGFPBCL6^FL) [2]: induced degradation of the full-length BCL6 reporter
- eGFP-containing BCL6 foci formation [3]: appearance of distinct eGFP-containing foci was observed within minutes
- higher molecular weight species of recombinant BCL6 [4]: led to higher molecular weight species of BCL6
- effect on the BCL6-SIAH1 interaction in cells (mBRET signal) [5]: increased the interaction between BCL6 and SIAH1
- affinity of compound to BCL6 (BCoR peptide competition) [6]: comparable affinity
